Experimental data: patent publication US8568736B2, “Polypeptide derivatives of parathyroid hormone (PTH)” (The General Hospital Corporation, priority 1999, dated 2013)
pEC50: −log10 of the molar value. Several values for one entry are separate records, joined by “and”; a condition that tells them apart may be missing. Identical values can stand only once. No end group written: not given here.

Key:
[1] = target: T1, PTH-1 receptor (Homo sapiens, UniProt Q03431); experiment: cAMP stimulation in HKRK-B7 cells (LLC-PK1 stably transfected with hPTH-1 receptor); format: cell-based; design: expressed in transfected cells; host or cells: LLC-PK1 porcine kidney cells, clone HKRK-B7; details: for Emax: Emax constrained to ±1 SD of rPTH(1-34) response at 100 nM; for fold more potent than native PTH(1-14): LLC-PK1 cells stably expressing hPTH-1 receptor
T1 sequence (Q03431 27-593): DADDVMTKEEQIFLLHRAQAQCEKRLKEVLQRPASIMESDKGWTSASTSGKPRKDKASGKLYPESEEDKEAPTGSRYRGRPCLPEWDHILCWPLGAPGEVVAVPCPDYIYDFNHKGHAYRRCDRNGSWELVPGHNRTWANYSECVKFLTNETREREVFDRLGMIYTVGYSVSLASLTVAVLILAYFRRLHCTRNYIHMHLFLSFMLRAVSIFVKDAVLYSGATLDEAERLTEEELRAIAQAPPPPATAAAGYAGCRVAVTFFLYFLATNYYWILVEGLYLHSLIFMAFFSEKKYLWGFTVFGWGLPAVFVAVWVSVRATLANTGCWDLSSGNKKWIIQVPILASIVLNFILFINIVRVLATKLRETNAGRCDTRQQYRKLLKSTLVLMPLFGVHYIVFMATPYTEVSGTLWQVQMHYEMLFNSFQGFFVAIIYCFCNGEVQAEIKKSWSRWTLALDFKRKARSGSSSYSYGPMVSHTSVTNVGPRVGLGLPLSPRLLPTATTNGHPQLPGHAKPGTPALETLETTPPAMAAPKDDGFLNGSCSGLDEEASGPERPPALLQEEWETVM
Description: Stably transfected derivatives of the porcine kidney cell line LLC-PK1, HKRK-B7 (Takasu, H., et al., J. Bone Miner. Res. 14:11-20 (1999)) and hPR2-20, express the human PTH-1 and human PTH-2 receptors respectively. The HKRK-B7 LLC-PK1 cell line expresses the hPTH-1 receptor at ˜1×10^6 receptors/cell (Takasu, H., et al., J. Bone Miner. Res. 14:11-20 (1999)), and the hPR2-22 LLC-PK1 cell line expresses the hPTH-2 receptor at ˜0.8×10^6 receptors/cell (provided by H. Takasu and F. R. Bringhurst, Endocrine Unit, Massachusetts General Hospital).
Stimulation of cells with peptide analogs was performed in 24-well plates. Cells were rinsed with 0.5 mL of binding buffer and treated with 200 μL of cAMP assay buffer (Dulbecco's modified Eagle's medium containing 2 mM 3-isobutyl-1-methylxanthine, 1 mg/mL bovine serum albumin, 35 mM Hepes-NaOH, pH 7.4) and 100 μL of binding buffer containing varying amounts of peptide analog (final volume=300 μL). The medium was removed after incubation for 1 h at room temperature, and the cells were frozen (−80° C.), lysed with 0.5 mL 50 mM HCl, and refrozen (−80° C.). The cAMP content of the diluted lysate was determined by radioimmunoassay. Where possible, cAMP EC50 and Maximum response values were determined using nonlinear regression (see below).
Intracellular cAMP accumulation may be measured as described by Abou-Samra et al., J. Biol. Chem. 262:1129, 1986) or other methods known to those of skill in the art. Intracellular cAMP is extracted by thawing the cells in 1 ml of 50 mM HCl and analyzed by a specific radioimmunoassay using an anti-cAMP antibody (e.g., Sigma, St. Louis, Mo.). A cAMP analog (2′-O-monosuccinyl-adenosine 3′:5′-cyclic monophosphate tyrosyl methyl ester, obtained from Sigma) which is used as a tracer for cAMP is iodinated by the chloramine T method. Free iodine is removed by adsorbing the iodinated cAMP analog onto a C18 Sep-pak cartridge (Waters, Milford, Mass.). After washing with dH2O, the iodinated cAMP analog is eluted from the Sep-pak Cartridge with 40% acetonitrille (ACN) and 0.1% trifluoroacetic acid (TFA). The iodinated cAMP analog is lyophilized, reconstituted in 1 ml 0.1% TFA, and injected into a C18 reverse phase HPLC column (Waters). The column is equilibrated with 10% ACN in 0.1% TFA, and eluted with gradient of 10-30% ACN in 0.1% TFA. This allows separation of the mono-iodinated cAMP analog from the non-iodinated cAMP analog. The tracer is stable for up to 4 months when stored at −20° C. The standard used for the assay, adenosine 3′:5′-cyclic monophosphate, is purchased from Sigma. Samples (1-10 µl of HCl extracts) or standards (0.04-100 fmol/tube) are diluted in 50 mM Na-acetate (pH 5.5), and acetylated with 10 μl of mixture of triethylamine and acetic anhydride (2:1 vol:vol). After acetylation, cAMP antiserum (100 μl) is added from a stock solution (1:4000) made in PBS (pH 7.4), 5 mM EDTA and 1% normal rabbit serum. The tracer is diluted in PBS (pH 7.4) with 0.1% BSA, and added (20,000 cpm/tube). The assay is incubated at 4° C. overnight. The bound tracer is precipitated by adding 100 μl of goat anti-rabbit antiserum (1:20 in PBS) and 1 ml of 7% polyethyleneglycol (MW 5000-6000), centrifuging at 2000 rpm for 30 min. at 4° C. The supernatant is removed and the bound radioactivity is counted in a gamma-counter (Micromedic). To compute the cAMP data, logit calculations were performed in Excel spreadsheets. Typically, the assay sensitivity is 0.1 fmol/tube, and the standard concentration that displaces 50% of tracer is 5 fmol/tube.
All calculations were performed using Microsoft Excel. Nonlinear regression analysis of cAMP stimulation data was performed using parameters, defined as the Minimum, Maximum, Emax, midpoint (EC50), and slope of the response curve. The predicted response (yp) for a given dose (x) of peptide was calculated using the following equation: yp=Min+[(Max−Min)/(1+(EC50/x)^slope)]. […]

[2] = tested on: truncated PTH-1 receptor rP1R-ΔNt; experiment: cAMP with truncated rat PTH-1 receptor lacking the N-terminal extracellular domain (rP1R-ΔNt); format: cell-based; details: COS-7 cells expressing rP1R-ΔNt
[3] = target: PTH-1 receptors; details: cells expressing (high levels of) PTH-1 receptors; Luck et al. 1999; read-out: EC50 adenyl cyclase/cAMP; cited from earlier work
[4] = tested on: truncated PTH-1 receptor rP1R-ΔNt; details: Luck et al. 1999; cited from earlier work

CCCC[C@H](NC(=O)[C@H](CCCNC(=N)N)NC(=O)[C@H](CCC(=O)O)NC(=O)[C@@H](NC(=O)[C@H](CO)NC(=O)[C@H](C)NC(=O)[C@H](CC(C)C)NC(=O)[C@H](Cc1c[nH]cn1)NC(=O)[C@H](CCCCN)NC(=O)CNC(=O)[C@H](CC(C)C)NC(=O)[C@H](CC(N)=O)NC(=O)[C@H](Cc1c[nH]cn1)NC(=O)[C@H](CCCC)NC(=O)[C@H](CC(C)C)NC(=O)[C@H](CCC(N)=O)NC(=O)[C@@H](NC(=O)[C@H](CCC(=O)O)NC(=O)[C@H](CO)NC(=O)[C@@H](NC(=O)[C@H](C)N)C(C)C)[C@@H](C)CC)C(C)C)C(=O)N[C@@H](CCC(N)=O)C(=O)N[C@@H](Cc1c[nH]c2ccccc12)C(=O)N[C@@H](CC(C)C)C(=O)N[C@@H](CCCNC(=N)N)C(=O)N[C@@H](CCCCN)C(=O)N[C@@H](CCCCN)C(=O)N[C@@H](CC(C)C)C(=O)N[C@@H](CCC(N)=O)C(=O)N[C@@H](CC(=O)O)C(=O)N[C@H](C(=O)N[C@@H](Cc1c[nH]cn1)C(=O)N[C@@H](CC(N)=O)C(=O)N[C@@H](Cc1ccc(O)cc1)C(N)=O)C(C)C [[Nle8, 21, Y34]rPTH(1-34), [Nle^8,21,Tyr^34]-rPTH(1-34)NH2, reference compound]
EC50 Log M ([1]; HKRK-B7 cells (hPTH-1 Receptor), cAMP, mean ± SEM): −8.6 ± 0.1 Log M | Emax ([1]; HKRK-B7 cells): 293 ± 29 picomole/well

AVAEIQLMHAR-NH2 [compound 6, AlaValAlaGluIleGlnLeuMetHisAlaArg-amide]
cAMP signaling activity (in words) ([1]; HKRK-B7 cells, dose-response): signaling activity was readily observed | Emax ([1]; HKRK-B7 cells): 248 ± 13 picomole/well

AVAEIQLMHARAKH-NH2 [Peptide #1, AlaValAlaGluIleGlnLeuMetHisAlaArgAlaLysHis-amide]
Emax ([1]; HKRK-B7 cells): 264 ± 16 picomole/well | fold more potent than native PTH(1-14) ([1]; cAMP): 160 fold | fold more potent than native PTH(1-14) ([1]; cAMP, listed as [A^3, A^10, R^11, A^12]rPTH(1-14)amide): 100 fold

AVAEIQLMHARAKHLNSMERVEWLRKKLQDVHNY-NH2 [Peptide #7]
fold more potent than the two controls, rPTH(1-34) and hPTH(1-34) ([1]; HKRK-B7 cells, cAMP): about 2 fold | Emax ([1]; HKRK-B7 cells): 244 picomole/well

AVSEIQLMHNLGKH-NH2 [native rPTH(1-14), AVSEIQLMHNLGKH, reference compound]
cAMP formation with rP1R-ΔNt (in words) [2]: stimulated cAMP formation | pEC50 [3]: ~4.00 and 4.00 | Emax ([1]; HKRK-B7 cells): 299 ± 27 picomole/well | potency with truncated vs intact rPTH-1 receptor (in words) [4]: as potent
